These results are taken from publication PMC8537277 (Pharmaceuticals, 2021).

The term CC50 denotes the concentration at which the toxic effect on the cells reaches its halfway point. A higher CC50 goes with better tolerance by the cells. A word on the EC50: it is the concentration giving half of the maximal effect. The term Kd denotes the constant that tells how readily two partners part at equilibrium.

One data set in a line: Cytotoxicity assay. Type of data set: cell-based, canine. Particulars: dog, MDCK cells. The method, then: This procedure was performed as reported elsewhere. Briefly, two-fold serial dilutions of each peptide in culture medium were incubated at 37 °C with confluent MDCK cells grown in 96-well tissue culture microplates (Nalge Nunc Europe Ltd., Neerijse, Belgium). After 24 h, the following parameters were evaluated: cell morphology, which was examined by light microscopy; cell viability, which was determined by neutral red staining as already described by us; and cell proliferation, which was evaluated quantitatively by microscopic counts after dispersion into individual cells with trypsin.

In data set [1] the test system is A/Parma/05/06 H3N2. Particulars: MDCK cells; ref Scala et al. (2017) [14]; cited from earlier work.
Data set [2] has as its system A/Parma/05/06 H3N2. Also noted: method as in Scala et al. (2017) [14]. The note with it: reference peptides; ref Scala et al. (2017) [14]; read-out: HI Titer (IC50) A/Parma/05/06 H3N2; cited from earlier work.
The test system of data set [3] is A/Roma-ISS/02/08 H1N1 oseltamivir-sensitive virus. The note with it: reference peptides; ref Scala et al. (2017) [14]; read-out: HI Titer (IC50) A/Roma-ISS/02/08 H1N1; cited from earlier work.
The subject of the next data set is A/Roma-ISS/02/08 H1N1. The note with it: MDCK cells; ref Scala et al. (2017) [14]; cited from earlier work.
In another data set the test system is A/Parma/24/09 H1N1. Particulars: MDCK cells; ref Scala et al. (2017) [14]; cited from earlier work.
The test system of data set [4] is A/Roma-ISS/02/08 H1N1 oseltamivir-sensitive virus. The note with it: A/Roma-ISS/02/08 oseltamivir-sensitive virus, 1 h.
Data set [5] has as its target HA (H1N1 hemagglutinin, Cat No: Z03181, GenScript). Particulars: read-out: SPR KD.
Data set [6] has as its target HA (H1N1 hemagglutinin, Cat No.: Z03181, GenScript). The note with it: read-out: MST KD.
Data set [7] concerns A/Parma/05/06 H3N2. Particulars: A/Parma/05/06, 1 h.

“And” between values parts separate entries of the source, which are not always exact repeats. Equal entries are not always repeated. Where two headings read alike, the source gives them in different places. Where a SMILES comes first, the peptide text is derived from it. A value given as a limit tells only on which side of the number the result lay.

Turning to `CC(=O)N[C@@H](CO)C(=O)N[C@@H](CCCCN)C(=O)N[C@@H](Cc1c[nH]cn1)C(=O)N[C@@H](CO)C(N)=O` [Peptide 1, Ac-SKHS-NH2] (Ac-SKHS-NH2), the CC50 at 24 h in the data set “Cytotoxicity assay” was > 25000 nM. Also, the EC50 was 0.005 nM with A/Parma/05/06 H3N2 [1] and 0.003 nM with A/Roma-ISS/02/08 H1N1. Moreover, the IC50 in the data set on A/Parma/05/06 H3N2 [2] is 12 nM; in data set [3] it was 0.1 nM.

Consider `CC(=O)N[C@@H](CO)C(=O)N[C@@H](CC(C)C)C(=O)N[C@@H](CC(=O)O)C(=O)N[C@@H](CS)C(N)=O` [Peptide 2, Ac-SLDC-NH2] (Ac-SLDC-NH2), for which the results for the EC50 in the data set with A/Parma/24/09 H1N1 and in the data set with A/Parma/05/06 H3N2 [1] were 0.0046 nM and 0.0043 nM, respectively. For the same compound, the IC50 in the data set on A/Parma/05/06 H3N2 [2] was 1.5 nM.

As to `CC(=O)N[C@@H](C)C(=O)N[C@@H](CCCCN)C(=O)N[C@@H](Cc1c[nH]cn1)C(=O)N[C@@H](CO)C(N)=O` [Peptide 3] (Ac-AKHS-NH2), the IC50 in data set [4] is 0.6 nM; with A/Parma/05/06 H3N2 [7], 12 nM. For the same compound, the Kd in data set [5] was 2700 ± 40 nM; in [6], 3120 ± 110 nM.

In the case of `CC(=O)N[C@@H](CO)C(=O)N[C@@H](C)C(=O)N[C@@H](Cc1c[nH]cn1)C(=O)N[C@@H](CO)C(N)=O` [Peptide 4, Ac-SAHS-NH2] (Ac-SAHS-NH2), the CC50 at 24 h in “Cytotoxicity assay” is > 25000 nM. For the same compound, the Kd is 3.57 ± 0.12 nM in data set [5]; 8.22 nM and 8.2 nM in data set [6].

`CC(=O)N[C@@H](CO)C(=O)N[C@@H](CCCCN)C(=O)N[C@@H](C)C(=O)N[C@@H](CO)C(N)=O` [Peptide 5] (Ac-SKAS-NH2): the Kd is 1030 ± 10 nM in data set [5] and 7010 ± 90 nM in [6].

As to `CC(=O)N[C@@H](CO)C(=O)N[C@@H](CCCCN)C(=O)N[C@@H](Cc1c[nH]cn1)C(=O)N[C@@H](C)C(N)=O` [Peptide 6] (Ac-SKHA-NH2), the figures for the Kd in [5] and in data set [6] were 6750 ± 810 nM and 11400 ± 170 nM, respectively.

With `CC(=O)N[C@@H](C)C(=O)N[C@@H](CC(C)C)C(=O)N[C@@H](CC(=O)O)C(=O)N[C@@H](CS)C(N)=O` [Peptide 7] (Ac-ALDC-NH2), the Kd stood at 27.7 ± 1.7 nM in data set [5] and 21200 ± 410 nM in [6].

In the case of `CC(=O)N[C@@H](CO)C(=O)N[C@@H](C)C(=O)N[C@@H](CC(=O)O)C(=O)N[C@@H](CS)C(N)=O` [Peptide 8] (Ac-SADC-NH2), the Kd in [5] was determined as 2190 ± 510 nM; in [6], 6380 ± 210 nM.

As to `CC(=O)N[C@@H](CO)C(=O)N[C@@H](CC(C)C)C(=O)N[C@@H](C)C(=O)N[C@@H](CS)C(N)=O` [Peptide 9] (Ac-SLAC-NH2), the figures for the Kd in data set [5] and in data set [6] were 2570 ± 340 nM and 5.8 ± 0.3 nM, respectively.

For the compound `CC(=O)N[C@@H](CO)C(=O)N[C@@H](CC(C)C)C(=O)N[C@@H](CC(=O)O)C(=O)N[C@@H](C)C(N)=O` [Peptide 10] (Ac-SLDA-NH2), the Kd in [5] was 343 ± 19 nM; in data set [6], 2690 ± 90 nM. In the data set with A/Parma/05/06 H3N2 [7], this compound came in with an IC50 of 0.0021 nM.
